In ChEMBL document CHEMBL5303573, “Mapping human microbiome drug metabolism by gut bacteria and their genes” (Nature, 2019):

Assays:
GDSL-like protein = molecular target: T1, GDSL-like protein (Collinsella aerofaciens, UniProt A4E8S4); assay: The drug is tested on Collinsella aerofaciens strain: ATCC25986 for biotransformation. The drug concentrations were measured before and after a 12-h incubation by liquid-chromatography-coupled mass spectrometry (LC–MS); type: ADME; set-up: dose 2 uM; conditions: 2 µM
T1 sequence (A4E8S4 whole entry): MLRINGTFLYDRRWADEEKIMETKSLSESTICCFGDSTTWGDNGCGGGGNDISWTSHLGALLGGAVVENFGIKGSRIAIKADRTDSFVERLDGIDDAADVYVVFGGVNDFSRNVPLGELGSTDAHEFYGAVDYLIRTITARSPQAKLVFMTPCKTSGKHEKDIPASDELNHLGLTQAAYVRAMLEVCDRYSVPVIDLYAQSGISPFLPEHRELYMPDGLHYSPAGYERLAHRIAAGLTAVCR

[1] = clostridioides difficile, 12 h, 2 µM
Description: The drug is tested on Clostridium difficile strain: 120 for biotransformation. The drug concentrations were measured before and after a 12-h incubation by liquid-chromatography-coupled mass spectrometry (LC–MS)

[2] = molecular target: T2, Acyltransferase 3 domain-containing protein (Phocaeicola dorei, UniProt B6W2J3); assay: (§1) The drug is tested on Bacteroides dorei strain: DSM17855 for biotransformation. The drug concentrations were measured before and after a 12-h incubation by liquid-chromatography-coupled mass spectrometry (LC–MS); type: ADME; set-up: dose 2 uM; conditions: 2 µM
T2 sequence (B6W2J3 whole entry): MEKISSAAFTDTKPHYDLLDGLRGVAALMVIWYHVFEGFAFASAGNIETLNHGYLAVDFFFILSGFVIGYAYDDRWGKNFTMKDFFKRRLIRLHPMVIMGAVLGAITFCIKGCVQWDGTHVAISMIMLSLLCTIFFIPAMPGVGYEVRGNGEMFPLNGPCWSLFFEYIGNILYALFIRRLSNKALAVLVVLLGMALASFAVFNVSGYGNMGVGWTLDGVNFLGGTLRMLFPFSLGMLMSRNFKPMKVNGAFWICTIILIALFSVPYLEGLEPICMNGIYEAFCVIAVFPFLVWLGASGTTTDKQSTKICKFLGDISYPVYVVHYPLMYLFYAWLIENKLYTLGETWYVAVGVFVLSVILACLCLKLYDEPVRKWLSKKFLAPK

Esterase = molecular target: T3, Esterase (Phocaeicola dorei, UniProt B6W2J6); assay: as §1; type: ADME; set-up: dose 2 uM; conditions: 2 µM
T3 sequence (B6W2J6 whole entry): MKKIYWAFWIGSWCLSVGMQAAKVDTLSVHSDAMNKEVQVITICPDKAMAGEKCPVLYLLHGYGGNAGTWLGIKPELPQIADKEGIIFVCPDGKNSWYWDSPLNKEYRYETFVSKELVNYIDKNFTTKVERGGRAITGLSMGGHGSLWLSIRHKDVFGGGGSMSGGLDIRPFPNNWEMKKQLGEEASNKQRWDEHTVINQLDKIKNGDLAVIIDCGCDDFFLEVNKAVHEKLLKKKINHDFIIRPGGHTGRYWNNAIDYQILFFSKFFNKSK

[3] = molecular target: T4, SGNH hydrolase-type esterase domain-containing protein (Phocaeicola dorei, UniProt B6VTE7); assay: as §1; type: ADME; set-up: dose 2 uM; conditions: 2 µM
T4 sequence (B6VTE7 whole entry): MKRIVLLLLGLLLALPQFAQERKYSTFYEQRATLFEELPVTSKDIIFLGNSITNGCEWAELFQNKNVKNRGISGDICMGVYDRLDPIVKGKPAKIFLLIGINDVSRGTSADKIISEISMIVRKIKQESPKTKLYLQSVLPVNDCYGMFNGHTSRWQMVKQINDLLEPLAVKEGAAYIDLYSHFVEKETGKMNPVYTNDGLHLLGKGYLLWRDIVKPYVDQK

[4] = molecular target: T5, SGNH hydrolase-type esterase domain-containing protein (Phocaeicola dorei, UniProt B6W293); assay: as §1; type: ADME; set-up: dose 2 uM; conditions: 2 µM
T5 sequence (B6W293 whole entry): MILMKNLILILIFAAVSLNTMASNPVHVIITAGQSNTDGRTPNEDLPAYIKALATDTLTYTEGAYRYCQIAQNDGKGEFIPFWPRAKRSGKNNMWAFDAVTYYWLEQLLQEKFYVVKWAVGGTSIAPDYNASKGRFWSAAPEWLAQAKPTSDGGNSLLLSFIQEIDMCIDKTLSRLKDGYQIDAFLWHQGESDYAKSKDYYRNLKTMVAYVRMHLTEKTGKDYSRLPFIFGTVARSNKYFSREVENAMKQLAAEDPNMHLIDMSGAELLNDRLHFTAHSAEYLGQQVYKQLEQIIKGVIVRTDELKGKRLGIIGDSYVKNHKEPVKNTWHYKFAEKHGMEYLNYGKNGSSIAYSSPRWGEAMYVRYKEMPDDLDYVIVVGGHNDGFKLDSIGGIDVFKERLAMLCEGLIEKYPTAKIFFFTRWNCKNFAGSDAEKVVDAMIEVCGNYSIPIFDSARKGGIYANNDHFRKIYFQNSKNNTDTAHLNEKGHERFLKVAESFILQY

[5] = molecular target: T6, Nitroreductase domain-containing protein (Phocaeicola dorei, UniProt B6W3P3); assay: as §1; type: ADME; set-up: dose 2 uM; conditions: 2 µM
T6 sequence (B6W3P3 whole entry): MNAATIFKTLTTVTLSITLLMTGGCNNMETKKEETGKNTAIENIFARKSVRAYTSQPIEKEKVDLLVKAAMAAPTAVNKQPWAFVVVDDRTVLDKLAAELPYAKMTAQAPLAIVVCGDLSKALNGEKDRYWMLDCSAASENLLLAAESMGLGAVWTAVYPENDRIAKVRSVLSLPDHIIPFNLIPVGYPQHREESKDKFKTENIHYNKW

[6] = molecular target: T7, Nitroreductase domain-containing protein (Phocaeicola dorei, UniProt B6VU18); assay: as §1; type: ADME; set-up: dose 2 uM; conditions: 2 µM
T7 sequence (B6VU18 whole entry): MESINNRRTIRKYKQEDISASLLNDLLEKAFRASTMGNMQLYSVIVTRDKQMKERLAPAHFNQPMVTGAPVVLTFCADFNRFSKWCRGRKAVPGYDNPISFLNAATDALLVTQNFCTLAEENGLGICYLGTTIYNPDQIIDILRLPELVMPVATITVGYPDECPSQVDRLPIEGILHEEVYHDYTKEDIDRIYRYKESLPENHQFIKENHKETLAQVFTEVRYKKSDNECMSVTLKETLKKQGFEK

[7] = The drug is tested on Salmonella typhimurium strain: LT2 for biotransformation. The drug concentrations were measured before and after a 12-h incubation by liquid-chromatography-coupled mass spectrometry (LC–MS); conditions: salmonella enterica subsp. enterica, 2 µM

| Bacterial Biotransformation (GDSL-like protein) | Bacterial Biotransformation [2] | Bacterial Biotransformation (Esterase) | Bacterial Biotransformation [3] | Bacterial Biotransformation [4] | Bacterial Biotransformation [5] | Bacterial Biotransformation [6] | Bacterial Biotransformation [7] | Structure (SMILES) | Bacterial Biotransformation [1] |
| --- | --- | --- | --- | --- | --- | --- | --- | --- | --- |
| Compound metabolized | Compound NOT metabolized | Compound metabolized | Compound metabolized | Compound metabolized | Compound NOT metabolized | Compound NOT metabolized | Compound metabolized | CC(=O)Oc1ccc(C(c2ccc(OC(C)=O)cc2)c2ccccn2)cc1 [BISACODYL] |  |
| Compound NOT metabolized | Compound NOT metabolized | Compound NOT metabolized | Compound NOT metabolized | Compound NOT metabolized | Compound NOT metabolized | Compound NOT metabolized |  | CC(=O)OCC(=O)NCCCOc1cccc(CN2CCCCC2)c1 [ROXATIDINE ACETATE] |  |
| Compound NOT metabolized | Compound NOT metabolized | Compound NOT metabolized | Compound NOT metabolized | Compound NOT metabolized | Compound metabolized | Compound metabolized |  | CCS(=O)(=O)CCn1c([N+](=O)[O-])cnc1C [TINIDAZOLE] |  |

| Structure (SMILES) | Bacterial Biotransformation (GDSL-like protein) | Bacterial Biotransformation [2] | Bacterial Biotransformation (Esterase) | Bacterial Biotransformation [3] | Bacterial Biotransformation [4] | Bacterial Biotransformation [5] | Bacterial Biotransformation [6] | Bacterial Biotransformation [7] | Bacterial Biotransformation [1] |
| --- | --- | --- | --- | --- | --- | --- | --- | --- | --- |
| C[C@@H]1CC[C@H]2[C@@H](C)C(=O)O[C@@H]3O[C@@]4(C)CC[C@@H]1[C@]32OO4 [ARTEMISININ] | Compound NOT metabolized | Compound NOT metabolized | Compound NOT metabolized | Compound NOT metabolized | Compound NOT metabolized | Compound NOT metabolized | Compound NOT metabolized |  | Compound metabolized |
